These results are taken from paper PMC8639922, “KSHV transactivator-derived small peptide traps coactivators to attenuate MYC and inhibits leukemia and lymphoma cell growth” (Communications Biology, 2021).

The test system of the test is BC-1 cells. Kind of test: MTT assay, deletion and mutant peptides. In kind it is cell-based, human. The settings on record: BC-1, 64 μM. An excerpt: Fig. 2 Viral and cellular responses to K-Rta peptide; identification of VGN50. a Protein sequence alignment. Homologous protein sequences were searched for with BLAST and extracted from other gamma-herpesviral homologs. The consensus protein sequence is depicted at the bottom of table. b Peptide design. Deletion peptides were designed based on the consensus sequence in a. The TAT protein sequence was used as a cell-penetrating peptide (CPP) and placed downstream from the K-Rta protein sequence. (d-R) D amino acid arginine, (ORN) ornithine, (bAla) beta alanine. c Sub cellular peptide localization. Cy5-labeled peptide 1 was used to track subcellular localization. Nuclei were visualized by DAPI staining. The scale is indicated in the panel. d MTT assays with deletion and mutant peptides. Peptide listed in b were incubated with BC-1 cells and MTT conversion was measured 48 h after incubation. The OD of mock-treated samples were set as 100%, and OD from detergent-treated cells were set as 0%. The amount of each peptide used for incubation is depicted along the x-axis. Mean percentage viability ±SD were calculated for each treatment group (n = 3 samples). Peptide 1 was renamed as VGN50. e Flow cytometry analyses of cell proliferation and apoptosis induction. Cells were incubated with VGN50 or mutant peptide (three alanine substitutions) for 24 h followed by measurements of percentage cell proliferation (Ki67 staining) and apoptosis induction (Annexin V staining). Standard deviation bars are included. (n = 3) Two-way Anova, followed by Sidak’s multiple comparisons test. f The effect of VGN50 on various cancer cell types. MTT assays were performed with the indicated cell lines treated with various VGN50 concentrations. The OD of mock-treated samples were set as 100%, and OD from detergent-treated cells were set as 0%. Mean percentage viability ±SD was calculated for each treatment (n = 3 samples/treatment). g Viability assay with flow cytometry. Cell viability was measured in triplicate with live/dead staining and the cell killing effects on cancer cells was compared with normal peripheral blood mononuclear cells (PBMC) from three healthy donors. Results are presented as mean percentage viability ±SD (n = 3 samples/group). f, g Ordinary one-way Anova, followed by Tukey’s multiple comparisons test. […]
Leukoreduction system chambers (LRS) from healthy donors were purchased from Vitalant. […] Cell death, apoptosis, and proliferation were analyzed by flow cytometry (BD Acuri) after intracellular staining with anti-humanKi67-Alexa488 (Biolegend, 1:100) along with the isotype control antibody, annexin-V-FITC with 7-AAD staining (Biolegend) according to the manufacture’s protocol, Live/dead Fixable Red Dead Cell staining kit (Invitrogen) according to the manufacture’s protocol, or MTT assay. […]

Each structure is given as a SMILES string. Square brackets hold non-standard residues; d marks the D form. Peptide text beside a SMILES is read from it. Orn = NCCC[C@H](N)C(=O)O; βAla = NCCC(=O)O

Turning to `CC(C)C[C@H](NC(=O)CCNC(=O)[C@H](CCCNC(=N)N)NC(=O)[C@H](CCCNC(=N)N)NC(=O)[C@H](CCCNC(=N)N)NC(=O)[C@H](CCCN)NC(=O)[C@H](CCCNC(=N)N)NC(=O)[C@H](CCCNC(=N)N)NC(=O)[C@H](CCCCN)NC(=O)[C@H](CCCCN)NC(=O)[C@H](N)CCCNC(=N)N)C(=O)N[C@@H](CO)C(=O)N[C@@H](CO)C(=O)N[C@@H](C)C(=O)N[C@@H](C)C(=O)N[C@@H](C)C(=O)NCC(=O)N[C@@H](CC(C)C)C(=O)N[C@@H](Cc1ccc(O)cc1)C(=O)N[C@@H](CCC(N)=O)C(=O)N[C@@H](CC(C)C)C(=O)N[C@@H](CC(=O)O)C(=O)N[C@H](C(=O)O)[C@@H](C)O` [Mt-P] (H-[dR]KKRR[Orn]RRR[βAla]LSSAAAGLYQLDT-OH; N-terminus and C-terminus assumed), the “Reduction of cell viability (MTT) compared to untreated control” value is reported as 20%.
